Measurements as given in patent US11634442B2, “Methods for the purification of L-glufosinate” (BASF SE, priority 2017, dated 2023).

Test: Solid form stability on storage over desiccant (XRPD, ion chromatography)
Protocol: X-ray Power Diffraction (XRPD), Reflection Mode: XRPD patterns were collected with a PANalytical X'Pert PRO MPD diffractometer using an incident beam of Cu Kα radiation produced using a long, fine-focus source and a nickel filter. The diffractometer was configured using the symmetric Bragg-Brentano geometry. […] A specimen of the sample was prepared as a thin, circular layer centered on a silicon zero-background substrate. Antiscatter slits (SS) were used to minimize the background generated by air. Soller slits for the incident and diffracted beams were used to minimize broadening from axial divergence. Diffraction patterns were collected using a scanning position-sensitive detector (X'Celerator) located 240 mm from the sample and Data Collector software v. 2.2b.
XRPD, Transmission Mode: XRPD patterns were collected with a PANalytical X'Pert PRO MPD diffractometer using an incident beam of Cu radiation produced using an Optix long, fine-focus source. An elliptically graded multilayer mirror was used to focus Cu Kα X-rays through the specimen and onto the detector. […] A specimen of the sample was sandwiched between 3-μm-thick films and analyzed in transmission geometry. A beam-stop, short antiscatter extension, antiscatter knife edge were used to minimize the background generated by air. Soller slits for the incident and diffracted beams were used to minimize broadening from axial divergence. Diffraction patterns were collected using a scanning position-sensitive detector (X'Celerator) located 240 mm from the specimen and Data Collector software v. 2.2b.
Form B was characterized by ^1H NMR, IC, DSC, and TGA.

Question: With CP(=O)(O)CC[C@H](N)C(=O)O.N [Form A] as the molecule, how does the “form change by XRPD upon storage over desiccant” value (Form A from 93/7 v/v methanol/water slurry, storage time not given) read?
Answer: Its value is “converted to Form B with minor additional peaks”.

Question: What about the “overall assessment of form stability” value (prone to conversion to Form B) of the same molecule?
Answer: Its value is “metastable”.

Question: Which “change in XRPD pattern upon storage over desiccant for 47 days” value (47 days over desiccant) does the source give for CP(=O)(O)CC[C@H](N)C(=O)O [Form B] here?
Answer: The value was “No significant changes”.

Question: Which results are given for CP(=O)(O)CC[C@H](N)C(=O)O.N [Form C]?
Answer: ammonium content by IC after storage under desiccant for 36 days (sample of Form C with minor Form A, 6.3 wt % initially): 3.2 wt %; form change by XRPD after storage under desiccant for 36 days (sample of Form C with minor Form A, 36 days under desiccant): conversion to Form B with minor Form A and a few minor additional peaks

Question: Which “change in XRPD pattern upon storage over desiccant” value (sample of Form D+minor Form A, storage time not given) does the source give for CP(=O)(O)CC[C@H](N)C(=O)O [Form D] here?
Answer: The value was “No significant changes”.
